Here are results for 22 compounds from patent US9260429B2, “Pyrido[3,4-B]indoles and methods of use” (Medivation Technologies, Inc., priority 2008, dated 2016).

Like-named read-outs stand apart in the source and are kept apart here.

The target in test [1] is T1, human recombinant histamine H1 receptor (Homo sapiens, UniProt P35367).
T1 construct: expressed in transfected cells; host or cells: CHO cells
The test is described as follows: Histamine H1 radioligand binding ([3H]Pyrilamine). The note with it: for inhibition at 3 µM: compound concentration 3 μM; for inhibition at 10 µM: compound concentration 10 μM. The method in brief: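 Binding to the human recombinant histamine H1 receptor, expressed in CHO cells, was measured in a modified Tris-HCl buffer (50 mM Tris-HCl, pH 7.4, 2 mM MgCl2, 100 mM NaCl, 250 mM Sucrose). Compounds were incubated with 1.2 nM [3H]Pyrilamine for 180 minutes at 25° C, with 1 μM pyrilamine defining non-specific binding. After filtration and washing, filter counts gave percent inhibition of specific binding.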

Test [2] concerns the target T2, human recombinant serotonin (5-Hydroxytryptamine) 5-HT2A receptor (Homo sapiens, UniProt P28223).
T2 construct: expressed in transfected cells; host or cells: CHO-K1 cells
Kind of test: Serotonin 5-HT2A radioligand binding ([3H]Ketanserin). The note with it: for inhibition at 0.003 µM: compound concentration 3 nM; for inhibition at 0.01 µM: compound concentration 10 nM; for inhibition at 0.03 µM: compound concentration 0.03 μM; for inhibition at 0.1 µM: compound concentration 0.1 μM; for inhibition at 0.3 µM: compound concentration 0.3 μM. The method in brief: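 Membranes from CHO-K1 cells expressing the receptor, in 50 mM Tris-HCl pH 7.4, incubated 60 min at 25° C with 0.5 nM [3H]Ketanserin; 1 μM Mianserin defines non-specific binding. Filtration and counting; values are % inhibition of specific binding at 1 μM or lower, 1% DMSO.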

Test [3] deals with T3, human recombinant serotonin (5-Hydroxytryptamine) 5-HT7 receptor (Homo sapiens, UniProt P34969).
T3 construct: expressed in transfected cells; host or cells: CHO cells
Kind of test: Serotonin 5-HT7 radioligand binding ([3H]LSD). Particulars: for inhibition at 0.003 µM: compound concentration 3 nM; for inhibition at 0.01 µM: compound concentration 10 nM; for inhibition at 0.03 µM: compound concentration 0.03 μM; for inhibition at 0.1 µM: compound concentration 0.1 μM; for inhibition at 0.3 µM: compound concentration 0.3 μM. A digest of the protocol: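 CHO-expressed human 5-HT7 receptor with 5.5 nM [3H]LSD in 50 mM Tris-HCl pH 7.4, 10 mM MgCl2, 0.5 mM EDTA, 2 h at 25 °C; nonspecific binding defined with serotonin. Filtration and counting. Compounds at ≤1 μM, 1% DMSO; % inhibition of specific binding.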

Setting [4] is: 1 μM, read-out: Binding data (Percentage Inhibition) Histamine Binding (1 μM) H1.
The mark [5] stands for this setting: 1 h, read-out: Percent Inhibition of ligand binding Serotonin (1 μM ligand concentration) 5-HT2A.
[6] abbreviates: 2 h, read-out: Percent Inhibition of ligand binding Serotonin (1 μM ligand concentration) 5-HT7.
Setting [7] is: compound concentration 1 μM, read-out: Percentage inhibition of ligand binding to H1 receptor.
[8] abbreviates: read-out: Percentage inhibition of ligand binding to H1 receptor.
Where [9] appears, read: read-out: Percentage inhibition of ligand binding to 5-HT2A receptor.
The mark [10] stands for this setting: compound concentration 1 μM, read-out: Percentage inhibition of ligand binding to 5-HT2A receptor.
Where [11] appears, read: read-out: Percentage inhibition of ligand binding to 5-HT7 receptor.

T1 sequence (P35367 whole entry): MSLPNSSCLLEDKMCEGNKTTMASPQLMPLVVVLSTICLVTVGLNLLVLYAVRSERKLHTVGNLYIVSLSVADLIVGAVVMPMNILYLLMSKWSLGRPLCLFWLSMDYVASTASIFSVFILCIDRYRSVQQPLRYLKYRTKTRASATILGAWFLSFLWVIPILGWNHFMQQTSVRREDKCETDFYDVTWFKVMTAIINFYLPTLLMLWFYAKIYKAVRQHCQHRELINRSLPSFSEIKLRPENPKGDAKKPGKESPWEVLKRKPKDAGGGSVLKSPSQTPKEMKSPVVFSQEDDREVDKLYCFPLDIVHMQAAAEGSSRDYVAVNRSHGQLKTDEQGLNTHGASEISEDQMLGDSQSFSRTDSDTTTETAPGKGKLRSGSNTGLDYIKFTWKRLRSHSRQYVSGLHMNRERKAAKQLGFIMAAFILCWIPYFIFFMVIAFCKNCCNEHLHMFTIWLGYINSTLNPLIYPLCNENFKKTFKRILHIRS
T2 sequence (P28223 whole entry): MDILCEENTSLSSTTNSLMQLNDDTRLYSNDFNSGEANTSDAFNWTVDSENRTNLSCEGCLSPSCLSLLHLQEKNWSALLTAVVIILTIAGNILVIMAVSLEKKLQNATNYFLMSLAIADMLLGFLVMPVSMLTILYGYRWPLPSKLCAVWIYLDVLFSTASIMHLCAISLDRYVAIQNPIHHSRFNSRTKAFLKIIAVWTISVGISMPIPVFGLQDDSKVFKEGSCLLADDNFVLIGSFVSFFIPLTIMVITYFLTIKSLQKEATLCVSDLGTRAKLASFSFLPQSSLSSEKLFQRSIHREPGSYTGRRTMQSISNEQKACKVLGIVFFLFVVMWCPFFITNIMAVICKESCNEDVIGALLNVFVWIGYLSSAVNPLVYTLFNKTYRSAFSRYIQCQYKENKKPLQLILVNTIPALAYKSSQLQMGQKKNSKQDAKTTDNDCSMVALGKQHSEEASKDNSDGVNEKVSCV
T3 sequence (P34969 whole entry): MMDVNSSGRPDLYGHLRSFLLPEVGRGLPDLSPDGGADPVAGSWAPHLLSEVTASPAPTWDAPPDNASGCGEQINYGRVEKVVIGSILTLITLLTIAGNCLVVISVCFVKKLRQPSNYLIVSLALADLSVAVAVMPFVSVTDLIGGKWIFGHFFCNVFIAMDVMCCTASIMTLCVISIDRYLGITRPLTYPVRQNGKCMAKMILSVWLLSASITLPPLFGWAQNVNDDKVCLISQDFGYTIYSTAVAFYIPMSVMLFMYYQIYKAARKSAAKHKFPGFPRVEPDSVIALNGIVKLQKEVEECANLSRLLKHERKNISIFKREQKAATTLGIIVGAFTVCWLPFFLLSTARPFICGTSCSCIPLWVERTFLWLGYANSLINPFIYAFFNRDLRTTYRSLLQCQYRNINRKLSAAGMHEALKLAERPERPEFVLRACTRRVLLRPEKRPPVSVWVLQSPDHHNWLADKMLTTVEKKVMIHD

Take `CCC1c2c(c3cc(Cl)ccc3n2CCc2ccc(F)cc2)CCN1C` (centres unmarked) [Compound 78]: the results for the inhibition at 1 µM in test [1] (setting [4]), in test [2] (setting [5]) and in test [3] (setting [6]) were 71%, 80% and 99%, respectively.

On to `CCC1c2c(c3cc(Cl)ccc3n2CC(C)(O)c2ccc(F)cc2)CCN1C` (centres unmarked) [Compound 79], for which the values for the inhibition at 1 µM in test [1] (setting [4]), in test [2] (setting [5]) and in test [3] (setting [6]) were 50%, 62% and 85%, respectively.

`Cc1ccc(CCn2c3c(c4cc(Cl)ccc42)CCN(C)C3C)cn1` (centres unmarked) [Compound 80]: the inhibition at 1 µM in test [1] (setting [4]) was 66%; in test [2] (setting [5]), 56%; in test [3] (setting [6]), 82%.

As for `CC1c2c(c3cc(Cl)ccc3n2CCc2ccc(F)cc2)CCN1C` (centres unmarked) [Compound 81], the values for the inhibition at 1 µM in test [1] (setting [4]), in test [2] (setting [5]) and in test [3] (setting [6]) were 80%, 93% and 82%, respectively.

For the compound `C/C(=C\n1c2c(c3cc(Cl)ccc31)CCN(C)C2)c1ccc(F)cc1` [Compound 90, (E)-6-chloro-9-(2-(4-fluorophenyl)prop-1-enyl)-2-methyl-2,3,4,9-tetrahydro-1H-pyrido[3,4-b]indole], the inhibition at 1 µM in test [1] (setting [4]) was 29%. Moreover, the inhibition at 1 µM in test [1] (setting [7]) is 48%. Also, in test [1] (setting [8]), the inhibition at 3 µM stood at 76% and the inhibition at 10 µM was determined as 94%. Further, the inhibition at 1 µM in test [2] (setting [5]) was 97%. For the same compound, in test [2] (setting [9]), the inhibition at 0.003 µM stood at 1%, the inhibition at 0.01 µM was 9%, the inhibition at 0.03 µM worked out at 31% and the inhibition at 0.1 µM came out at 64%. Moreover, the inhibition at 0.3 µM in test [2] (setting [9]) was determined as 87%. For the same compound, the inhibition at 1 µM in test [2] (setting [10]) was determined as 97%. Further, in test [3] (setting [11]), the inhibition at 0.003 µM is -2%, the inhibition at 0.01 µM amounted to 15%, the inhibition at 0.03 µM turned out to be 29% and the inhibition at 0.1 µM is 63%. For the same compound, the inhibition at 0.3 µM in test [3] (setting [11]) worked out at 86%.

For `C/C(=C\n1c2c(c3cc(C)ccc31)CCN(C)C2)c1ccc(F)cc1` [Compound 91, (E)-9-(2-(4-fluorophenyl)prop-1-enyl)-2,6-dimethyl-2,3,4,9-tetrahydro-1H-pyrido[3,4-b]indole], the inhibition at 1 µM in test [1] (setting [4]) amounted to 28%. Moreover, in test [1] (setting [7]), the inhibition at 1 µM came to 42%. Besides, in test [1] (setting [8]), the inhibition at 3 µM was determined as 75% and the inhibition at 10 µM came out at 95%. The inhibition at 1 µM in test [2] (setting [5]) stood at 97%. For the same compound, in test [2] (setting [9]), the inhibition at 0.003 µM worked out at 2%, the inhibition at 0.01 µM was 21%, the inhibition at 0.03 µM came out at 54% and the inhibition at 0.1 µM worked out at 79%. In addition, in test [2] (setting [9]), the inhibition at 0.3 µM is 92%. Besides, the inhibition at 1 µM in test [2] (setting [10]) came out at 97%. In test [3] (setting [11]), the inhibition at 0.003 µM is 19%, the inhibition at 0.01 µM turned out to be 36%, the inhibition at 0.03 µM was 53% and the inhibition at 0.1 µM was 83%. In addition, the inhibition at 0.3 µM in test [3] (setting [11]) worked out at 87%.

For the compound `C/C(=C\n1c2c(c3cc(C)ccc31)CCN(C)C2)c1ccc(Cl)cc1` [Compound 97, 9-(2-(4-chlorophenyl)prop-1-enyl)-2,6-dimethyl-2,3,4,9-tetrahydro-1H-pyrido[3,4-b]indole], the inhibition at 1 µM in test [1] (setting [4]) was 20%; in test [2] (setting [5]), 97%; in test [3] (setting [6]), 98%.

Regarding `C/C(=C\n1c2c(c3cc(Cl)ccc31)CCN(C)C2)c1ccc(Cl)cc1` [Compound 98, 6-chloro-9-(2-(4-chlorophenyl)prop-1-enyl)-2-methyl-2,3,4,9-tetrahydro-1H-pyrido[3,4-b]indole], the inhibition at 1 µM was 40% in test [1] (setting [4]), 98% in test [2] (setting [5]) and 94% in test [3] (setting [6]).

Consider `C/C(=C\n1c2c(c3cc(Cl)ccc31)CCN(C)C2C)c1ccc(Cl)cc1` (centres unmarked) [Compound 99, 6-chloro-9-(2-(4-chlorophenyl)prop-1-enyl)-1,2-dimethyl-2,3,4,9-tetrahydro-1H-pyrido[3,4-b]indole], for which the values for the inhibition at 1 µM in test [1] (setting [4]), in test [2] (setting [5]) and in test [3] (setting [6]) were 65%, 86% and 68%, respectively.

For `CCC1c2c(c3cc(Cl)ccc3n2/C=C(\C)c2ccc(Cl)cc2)CCN1C` (centres unmarked) [Compound 100, 6-chloro-9-(2-(4-chlorophenyl)prop-1-enyl)-1-ethyl-2-methyl-2,3,4,9-tetrahydro-1H-pyrido[3,4-b]indole], the values for the inhibition at 1 µM in test [1] (setting [4]), in test [2] (setting [5]) and in test [3] (setting [6]) were 33%, 87% and 42%, respectively.

`CC1c2c(c3cc(Cl)ccc3n2C#Cc2ccc(F)cc2)CCN1C` (centres unmarked) [Compound 128]: the figures for the inhibition at 1 µM in test [1] (setting [4]), in test [2] (setting [5]) and in test [3] (setting [6]) were 32%, 95% and 24%, respectively.

With `CCC1c2c(c3cc(Cl)ccc3n2C#Cc2ccc(F)cc2)CCN1C` (centres unmarked) [Compound 129], the inhibition at 1 µM in test [1] (setting [4]) came to 8%; in test [2] (setting [5]) it was 85%; in test [3] (setting [6]), 15%.

`CC1c2c(c3cc(Cl)ccc3n2C#Cc2ccc(Cl)cc2)CCN1C` (centres unmarked) [Compound 132, 6-chloro-9-((4-chlorophenyl)ethynyl)-1,2-dimethyl-2,3,4,9-tetrahydro-1H-pyrido[3,4-b]indole]: the inhibition at 1 µM was 14% in test [1] (setting [4]), 80% in test [2] (setting [5]) and 35% in test [3] (setting [6]).

For `CCC1c2c(c3cc(C)ccc3n2C(=O)Cc2ccc(F)cc2)CCN1C` (centres unmarked) [Compound 159], the inhibition at 1 µM came to 5% in test [1] (setting [4]), 89% in test [2] (setting [5]) and 49% in test [3] (setting [6]).

With `CCC1c2c(c3cc(C)ccc3n2/C=C(\C)c2ccc(Cl)cc2)CCN1C` (centres unmarked) [Compound 160, 9-(2-(4-chlorophenyl)prop-1-enyl)-1-ethyl-2,6-dimethyl-2,3,4,9-tetrahydro-1H-pyrido[3,4-b]indole], the results for the inhibition at 1 µM in test [1] (setting [4]), in test [2] (setting [5]) and in test [3] (setting [6]) were 31%, 95% and 84%, respectively.

As to `C/C(=C\n1c2c(c3cc(C)ccc31)CCN(C)C2C)c1ccc(Cl)cc1` (centres unmarked) [Compound 161, 9-(2-(4-chlorophenyl)prop-1-enyl)-1,2,6-trimethyl-2,3,4,9-tetrahydro-1H-pyrido[3,4-b]indole], the inhibition at 1 µM in test [1] (setting [4]) came out at 51%; in test [2] (setting [5]) it was 96%; in test [3] (setting [6]), 93%.

In the case of `CCC1c2c(c3cc(C)ccc3n2C#Cc2ccc(Cl)cc2)CCN1C` (centres unmarked) [Compound 162, 9-((4-chlorophenyl)ethynyl)-1-ethyl-2,6-dimethyl-2,3,4,9-tetrahydro-1H-pyrido[3,4-b]indole], the inhibition at 1 µM came out at 15% in test [1] (setting [4]), 98% in test [2] (setting [5]) and 27% in test [3] (setting [6]).

`Cc1ccc2c(c1)c1c(n2C(=O)Cc2ccc(Cl)cc2)C(c2ccccc2)N(C)CC1` (centres unmarked) [Compound 163]: the inhibition at 1 µM came to 13% in test [1] (setting [4]), 98% in test [2] (setting [5]) and 29% in test [3] (setting [6]).

In the case of `C/C(=C\n1c2c(c3cc(C)ccc31)CCN(C)C2c1ccccc1)c1ccc(Cl)cc1` (centres unmarked) [Compound 164, 9-(2-(4-chlorophenyl)prop-1-enyl)-2,6-dimethyl-1-phenyl-2,3,4,9-tetrahydro-1H-pyrido[3,4-b]indole], the results for the inhibition at 1 µM in test [1] (setting [4]), in test [2] (setting [5]) and in test [3] (setting [6]) were 12%, 95% and 8%, respectively.

In the case of `C/C(=C/n1c2c(c3cc(C)ccc31)CCN(C)C2C)c1ccccc1F` (centres unmarked) [Compound 165], the inhibition at 1 µM in test [1] (setting [4]) is 21%; in test [2] (setting [5]), 85%; in test [3] (setting [6]), 91%.

As to `C/C(=C\n1c2c(c3cc(C)ccc31)CCN(C)C2C)c1ccccc1F` (centres unmarked) [Compound 166], the inhibition at 1 µM was 79% in test [1] (setting [4]); 79% in test [1] (setting [7]); 102% in test [2] (setting [5]); 102% in test [2] (setting [10]); 92% in test [3] (setting [6]); 92% in test [3] (compound concentration 1 μM, read-out: Percentage inhibition of ligand binding to 5-HT7 receptor). For the same compound, the inhibition at 0.3 µM in test [1] (compound concentration 0.3 μM, read-out: Percentage inhibition of ligand binding to H1 receptor) came out at 23%; in test [2] (setting [9]), 81%. In test [1] (setting [8]), the inhibition at 3 µM was found to be 77%. In test [2] (setting [9]), the inhibition at 0.01 µM was 15%. Further, the inhibition at 0.03 µM in test [2] (setting [9]) amounted to 46%. In addition, the inhibition at 0.1 µM in test [2] (setting [9]) turned out to be 74%.

Take `C/C(=C/n1c2c(c3cc(Cl)ccc31)CCN(C)C2C)c1ccccc1F` (centres unmarked) [Compound 167]: the results for the inhibition at 1 µM in test [1] (setting [4]), in test [2] (setting [5]) and in test [3] (setting [6]) were 64%, 88% and 97%, respectively.
